The structures appear in SMILES notation.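 Exposure lasted 48 hours, with cells grown in 96-well plates and compounds tested at five concentrations. GI50: concentration for 50% inhibition of growth.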 Calls of active or inactive are those of the source. Rule as the data show it: active = GI50 up to about 1.1 µM and inactive = higher. Bounds are passed on as bounds.

Here are results for eleven compounds from ChEMBL document CHEMBL1201862, “PubChem BioAssay data set” (2004).

Among the test systems are NCI-H460; NCI-H23; Hs-578T; IGROV-1; Malme-3M; NCI-H522; MDA-MB-435; UACC-257; HOP-92; T47D; HCT-15; MDA-MB-231; UO-31; OVCAR-4; SF-295; HCT-116; COLO 205; SN12C; CCRF-CEM.
Holding throughout (test): growth of human tumour cells (NCI), 48 h

For `CC1(C)SC2C(C(=O)O)N=C(Cc3ccccc3)N2C1C(=O)O` (configuration not stated), the GI50 with NCI-H460 was 45.1 µM (inactive); in the experiment on NCI-H23, 86.3 µM (inactive); with Hs-578T, 29.4 µM (inactive); in the experiment on IGROV-1, > 100 µM (inactive); with Malme-3M, 62.2 µM (inactive); in the experiment on NCI-H522, 51.3 µM (inactive). The GI50 with MDA-MB-435 is 40.7 µM (inactive); in the experiment with UACC-257, 21.9 µM (inactive); in the experiment with HOP-92, 42.8 µM (inactive); in the experiment with T47D it was 24.4 µM (inactive); with HCT-15, 81.5 µM; in the experiment on MDA-MB-231, 43.3 µM (inactive). For the same compound, the GI50 with UO-31 is 19.4 µM (inactive); with OVCAR-4, 92.3 µM (inactive); in the experiment with SF-295 it was 31.7 µM (inactive); in the experiment with HCT-116 it was 24.9 µM (inactive); in the experiment with COLO 205 it was > 100 µM (inactive); with SN12C, 35 µM (inactive).
For `CN1CCC/C1=C1\C(=O)c2cccn2C1=O`, the GI50 with NCI-H460, with CCRF-CEM, in the experiment on NCI-H23, in the experiment on Hs-578T, in the experiment with IGROV-1 and with Malme-3M was > 100 µM (inactive) each time. In addition, the GI50 was > 100 µM (inactive) in the experiment on NCI-H522; > 100 µM (inactive) in the experiment on MDA-MB-435; > 100 µM (inactive) with UACC-257; > 100 µM (inactive) in the experiment with T47D; greater than 100 µM in the experiment with HCT-15; > 100 µM (inactive) with MDA-MB-231. The GI50 with UO-31, in the experiment on OVCAR-4, in the experiment with SF-295, in the experiment with HCT-116, in the experiment with COLO 205 and in the experiment with SN12C was > 100 µM (inactive) throughout.
As for `CC[C@H](C)C1=C(O)[N@+]2([O-])Oc3ccc(-c4c(O)c(O)c(-c5ccc(O)cc5)c(OC(C)=O)c4OC(C)=O)cc3O[C@]2([C@@H](C)CC)C(=O)N1O`, the GI50 in the experiment on NCI-H460 was 19 µM (inactive); in the experiment with NCI-H23 it was 47.3 µM (inactive); in the experiment on Hs-578T, 26.5 µM (inactive); in the experiment on IGROV-1 it was 6.4 µM (inactive); in the experiment on Malme-3M, 21.3 µM (inactive); in the experiment on NCI-H522, 7.85 µM (inactive). The GI50 with MDA-MB-435 is 28.1 µM (inactive); with UACC-257, > 50 µM (inactive); in the experiment on HOP-92 it was 6.52 µM (inactive); in the experiment with T47D, > 50 µM (inactive); in the experiment with HCT-15, 17 µM; with MDA-MB-231, > 50 µM (inactive). Moreover, the GI50 in the experiment with UO-31 was 33.8 µM (inactive); in the experiment on OVCAR-4, 11.6 µM (inactive); in the experiment on SF-295, 24.8 µM (inactive); with HCT-116, 10.1 µM (inactive); in the experiment on COLO 205 it was > 50 µM (inactive); with SN12C, 19.3 µM (inactive).
For `COc1cccc(C2c3cc4c(cc3OC(NNc3ccccc3)C2C)OCO4)c1O` (configuration not stated), the GI50 with NCI-H460 is 2.81 µM (inactive); in the experiment with CCRF-CEM it was 4.68 µM (inactive); in the experiment with NCI-H23, 10.1 µM (inactive); in the experiment with Hs-578T, 11.9 µM (inactive); in the experiment with IGROV-1 it was 5.47 µM (inactive); in the experiment with Malme-3M it was 4.66 µM (inactive). The GI50 in the experiment with NCI-H522 is 2.36 µM (inactive); with MDA-MB-435, 2.59 µM (inactive); with UACC-257, 4.57 µM (inactive); in the experiment with HOP-92, 12.6 µM (inactive); with T47D, 6.15 µM (inactive); in the experiment with HCT-15 it was 1.62 µM. The GI50 is 12.6 µM (inactive) in the experiment with MDA-MB-231; 3.32 µM (inactive) in the experiment on UO-31; 2.06 µM (inactive) with SF-295; 4.4 µM (inactive) in the experiment with HCT-116; 8.75 µM (inactive) in the experiment on COLO 205; 11.2 µM (inactive) in the experiment on SN12C.
On to `CC(Oc1ccc(Cl)cc1Cl)C(=O)NN1C(=O)CSC1c1ccc(Cl)cc1` (configuration not stated), for which the GI50 in the experiment on NCI-H460 is > 100 µM (inactive); with NCI-H23, 79.8 µM (inactive); in the experiment on Hs-578T it was 64.7 µM (inactive); in the experiment on IGROV-1 it was 36.1 µM (inactive); in the experiment with NCI-H522, 93.1 µM (inactive); with MDA-MB-435 it was > 100 µM (inactive). Moreover, the GI50 was 48.2 µM (inactive) with UACC-257; 21 µM (inactive) in the experiment with HOP-92; 42.5 µM (inactive) in the experiment with T47D; greater than 100 µM in the experiment on HCT-15; 27.4 µM (inactive) in the experiment on MDA-MB-231; > 100 µM (inactive) in the experiment with UO-31. Besides, the GI50 with OVCAR-4 was 35.3 µM (inactive); in the experiment with SF-295 it was 50.6 µM (inactive); in the experiment on HCT-116 it was 57.9 µM (inactive); with COLO 205, > 100 µM (inactive); in the experiment on SN12C, 20 µM (inactive).
Regarding `CN1CCN(Cc2nc3c(s2)CCc2sccc2-3)CC1`, the GI50 with NCI-H460 is > 100 µM (inactive); in the experiment with CCRF-CEM, > 100 µM (inactive); with NCI-H23 it was > 100 µM (inactive); in the experiment on Hs-578T it was > 100 µM (inactive); with IGROV-1, > 100 µM (inactive); in the experiment with Malme-3M it was 89.3 µM (inactive). For the same compound, the GI50 is > 100 µM (inactive) with NCI-H522; 54.2 µM (inactive) in the experiment on MDA-MB-435; 79.3 µM (inactive) in the experiment with UACC-257; 41.6 µM (inactive) in the experiment on T47D; greater than 100 µM in the experiment on HCT-15; 52.2 µM (inactive) in the experiment on MDA-MB-231. Further, the GI50 is 59.8 µM (inactive) in the experiment with UO-31; > 100 µM (inactive) in the experiment with OVCAR-4; 73.1 µM (inactive) in the experiment with SF-295; 62.5 µM (inactive) with HCT-116; > 100 µM (inactive) in the experiment on COLO 205; > 100 µM (inactive) with SN12C.
Turning to `CC(=O)OC1OC(c2ccoc2)C[C@@]12C1CCC3O[C@]3(C)[C@]1(C)C[C@H](OC(C)=O)[C@H]2C` (some centres not stated), the GI50 was 58.3 µM (inactive) with NCI-H460; 38.1 µM (inactive) in the experiment with CCRF-CEM; 74.1 µM (inactive) in the experiment with NCI-H23; > 75 µM (inactive) in the experiment on Hs-578T; > 75 µM (inactive) in the experiment with IGROV-1; > 75 µM (inactive) with NCI-H522. In addition, the GI50 with MDA-MB-435 was > 75 µM (inactive); in the experiment with UACC-257 it was > 75 µM (inactive); in the experiment on HOP-92 it was 72.8 µM (inactive); in the experiment with T47D, 35.2 µM (inactive); with HCT-15, greater than 75 µM; in the experiment on MDA-MB-231, 45.9 µM (inactive). The GI50 in the experiment on UO-31 was 70.8 µM (inactive); in the experiment with OVCAR-4 it was 59.2 µM (inactive); in the experiment with SF-295 it was > 75 µM (inactive); in the experiment with HCT-116, > 75 µM (inactive); in the experiment on COLO 205 it was > 75 µM (inactive); with SN12C it was > 75 µM (inactive).
With `C[C@H]1CC[C@@H]2[C@@H](C)[C@H]3[C@H](C[C@H]4[C@@H]5CC=C6C[C@@H](O)CC[C@]6(C)[C@H]5C[C@H](O)[C@]34C)N2C1`, the GI50 in the experiment on NCI-H460, with NCI-H23, in the experiment with Hs-578T, with IGROV-1, in the experiment with Malme-3M and in the experiment on NCI-H522 was > 100 µM (inactive) each time. The GI50 with MDA-MB-435 was > 100 µM (inactive); in the experiment on UACC-257 it was > 100 µM (inactive); with HOP-92, > 100 µM (inactive); in the experiment on T47D, > 100 µM (inactive); in the experiment on HCT-15 it was greater than 100 µM; with MDA-MB-231, > 100 µM (inactive). The GI50 in the experiment with UO-31, in the experiment with OVCAR-4, in the experiment with SF-295, in the experiment on HCT-116, in the experiment with COLO 205 and in the experiment on SN12C was > 100 µM (inactive) throughout.
On to `CC(=O)OCC(OC(C)=O)C(OC(C)=O)C(/C=N\Nc1nc2ccccc2c(=O)[nH]1)=N\Nc1nc2ccccc2c(=O)[nH]1` (configuration not stated), for which the GI50 in the experiment with NCI-H460 was 22.3 µM (inactive); in the experiment with CCRF-CEM, 34.4 µM (inactive); with NCI-H23 it was > 100 µM (inactive); in the experiment on Hs-578T, > 100 µM (inactive); in the experiment with IGROV-1 it was > 100 µM (inactive); in the experiment on Malme-3M it was > 100 µM (inactive). Moreover, the GI50 is > 100 µM (inactive) in the experiment with NCI-H522; > 100 µM (inactive) in the experiment with MDA-MB-435; 17.3 µM (inactive) in the experiment with UACC-257; > 100 µM (inactive) in the experiment with HOP-92; 47 µM (inactive) with T47D; greater than 100 µM in the experiment on HCT-15. Besides, the GI50 with MDA-MB-231, in the experiment with UO-31, in the experiment with SF-295, with HCT-116, in the experiment with COLO 205 and with SN12C was > 100 µM (inactive) each time.
On to `C#Cc1nc(N)c2ncn(C3OC(COS(N)(=O)=O)C(O)C3O)c2n1` (configuration not stated), for which the GI50 in the experiment on NCI-H460 was < 0.0193 µM (active); in the experiment on CCRF-CEM it was < 0.0189 µM (active); in the experiment on NCI-H23 it was < 0.0164 µM (active); in the experiment on Hs-578T, 0.0379 µM (active); in the experiment with IGROV-1, 0.0291 µM (active); in the experiment with NCI-H522, < 0.01 µM (active). Also, the GI50 in the experiment on MDA-MB-435 was 0.016 µM (active); in the experiment on UACC-257 it was < 0.0318 µM (active); in the experiment on HOP-92, < 0.01 µM (active); with T47D, < 0.01 µM (active); in the experiment with HCT-15, less than 0.0214 µM; with MDA-MB-231, < 0.0185 µM (active). For the same compound, the GI50 in the experiment with UO-31 was < 0.0187 µM (active); in the experiment on OVCAR-4, < 0.0193 µM (active); in the experiment on SF-295, 0.757 µM (active); with HCT-116 it was 0.0184 µM (active); in the experiment with COLO 205, 0.0277 µM (active); in the experiment on SN12C, 0.0172 µM (active).
For `O=C(O)c1cc(C(=O)C(=O)c2cc(C(=O)O)c(O)c3ccccc23)c2ccccc2c1O`, the GI50 in the experiment on NCI-H460, in the experiment on NCI-H23, with Hs-578T, with IGROV-1, in the experiment on Malme-3M and in the experiment on NCI-H522 was > 100 µM (inactive) throughout. Also, the GI50 with MDA-MB-435 was > 100 µM (inactive); in the experiment with UACC-257, > 100 µM (inactive); with HOP-92, > 100 µM (inactive); in the experiment with T47D it was > 100 µM (inactive); with HCT-15 it was greater than 100 µM; in the experiment on MDA-MB-231, > 100 µM (inactive). Moreover, the GI50 with UO-31, in the experiment on OVCAR-4, with SF-295, in the experiment on HCT-116, with COLO 205 and with SN12C was > 100 µM (inactive) each time.
